Source: publication PMC9639651, “8-Aminoinosine and 8-Aminohypoxanthine Inhibit Purine Nucleoside Phosphorylase and Exert Diuretic and Natriuretic Activity” (The Journal of Pharmacology and Experimental Therapeutics, 2022)
Values belong to the compound of their own block, whether it stands above or below them.

How the values were obtained:
[1] = biological target: T1, recombinant human purine nucleoside phosphorylase (rhPNPase) (Homo sapiens, UniProt P00491); experiment: biochemical
T1 construct: gene PNP
T1 sequence (P00491 1-289): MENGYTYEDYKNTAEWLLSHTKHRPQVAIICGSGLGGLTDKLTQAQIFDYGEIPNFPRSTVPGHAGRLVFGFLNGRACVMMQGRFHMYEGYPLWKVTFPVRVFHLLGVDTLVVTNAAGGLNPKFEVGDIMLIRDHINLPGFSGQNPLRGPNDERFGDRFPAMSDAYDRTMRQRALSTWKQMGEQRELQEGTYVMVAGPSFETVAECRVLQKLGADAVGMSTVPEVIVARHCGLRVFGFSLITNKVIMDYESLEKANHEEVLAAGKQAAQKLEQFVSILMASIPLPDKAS

[2] = biological target: T1, recombinant human purine nucleoside phosphorylase (rhPNPase); experiment: HPLC-UV enzyme kinetics, guanosine as substrate (Ki […] with inosine), competitive inhibition fit; assay type: biochemical
[3] = biological target: T1, recombinant human purine nucleoside phosphorylase (rhPNPase); experiment: HPLC-UV enzyme kinetics, competitive inhibition of inosine metabolism; also Michaelis-Menten turnover to 8-aminohypoxanthine; assay type: biochemical
[4] = biological target: T1, recombinant human purine nucleoside phosphorylase (rhPNPase); experiment: Michaelis-Menten kinetics by HPLC-UV; also inhibits metabolism of 8-aminoinosine; assay type: biochemical

Ki [1]: 2.8 µM
SMILES: Nc1nc2[nH]c(N)nc2c(=O)[nH]1 [8AG, 8-aminoguanine]

Ki [2]: 20 µM
SMILES: Nc1nc2nc[nH]c(=O)c2[nH]1 [8AHX, 8-aminohypoxanthine]

Ki [3]: 35 µM
SMILES: Nc1nc2c(O)ncnc2n1[C@@H]1O[C@H](CO)[C@@H](O)[C@H]1O [8AI, 8-aminoinosine]

SMILES: O=c1[nH]cnc2c1ncn2[C@@H]1O[C@H](CO)[C@@H](O)[C@H]1O [inosine]
Michaelis-Menten kinetics by HPLC-UV; also inhibits metabolism of 8-aminoinosine [4]: inosine competitively inhibits the metabolism of 8-aminoinosine to 8-aminohypoxanthine
